# In PMC8229129, “Local Colonic Administration of a Serine Protease Inhibitor Improves Post-Inflammatory Visceral Hypersensitivity in Rats” (Pharmaceutics, 2021):
# Several values for one entry are separate records, joined by “and”; a condition that tells them apart may be missing. Equal entries are not always repeated.
# Columns and labels:
# cathepsin G = system: cathepsin G; parameters: method as in PMID 29911328; settings: in vitro; cited from earlier work
# [1] = Plasma concentrations after intracolonic administration (LC-MS/MS); type: in vivo, Sprague–Dawley rats; settings: rat; for Plasma concentration: intracolonic 5 mg/kg
# Description: (§1) To evaluate the pharmacokinetic properties of UAMC-00050, it was administered in male Sprague–Dawley rats (200–225 g) either colonically (5 mg/kg, in a volume of 200 µL 5% DMSO solution) or intravenously (1 mg/kg in a volume of 200 µL 5% DMSO solution). Plasma samples were collected after 5, 15, 30, 45, 60, 90, 120, and 180 min via the tail vein and stored at −80 °C until analysis.
# (§2) Sample preparation and analysis of plasma samples consisted of protein precipitation followed by direct injection in a liquid chromatography–tandem mass spectrometry (LC-MS/MS) instrument. Briefly, 100 µL of plasma was spiked with 20 µL of nordazepam-D5 used as internal standard for quantification (yielding in a final concentration of 485 ng/mL) and afterwards 180 µL of acetonitrile was added to precipitate proteins. Subsequently, the samples were vortexed for 2.5 min at 2000× g and centrifuged for 5 min at 10,000× g. In a next step, 100 µL of the supernatant was transferred to a 0.20 µm centrifugal filter to remove remaining particles. After centrifugation for 5 min at 10,000× g, the remaining filtrate was transferred to an autosampler vial ready to be analyzed with LC-MS/MS. A seven-level point calibration curve with final concentrations ranging between 5 and 1000 ng/mL and a curve weighting factor of 1/x^2 was prepared in blank mouse plasma using different working solution standards of UAMC-00050 and a fixed amount of internal standard. The lower limit of quantification of the method was 5 ng/mL.
# (§3) A gradient was applied as follows: 0–0.5 min: 5% B; 0.5–10 min 5–100% B; 10–12 min 100% B; and 12–12.1 min 5% B. The total run time was 18 min and the injection volume was set to 5 µL. Detection and quantification of UAMC-00050 were performed with an Agilent 6410 triple quadrupole MS system with an electrospray interface (ESI) operating in positive ionization mode. The following source parameters were applied: gas temperature 350 °C, gas flow 10 L/min, nebulizer 35 psi, and capillary voltage 4000 V. Compound-dependent MS parameters are summarized in Table 1. The most abundant transition of UAMC-00050 was used as quantifier and the other transitions were used for confirmation (qualifiers). For compound confirmation, the following criteria were used: the quantifier/qualifier ratio should fall within ±15% of the ratio observed in calibrators and the relative retention time should fall within 2.5% of the values observed in the calibrators.
# chronic colitis = system: chronic colitis; parameters: method as in doi:10.1016/S0016-5085(16)33277-2; settings: murine CD4+CD25−CD62L+ T-cell transfer model for chronic colitis; cited from earlier work
# pancreatic elastase = pancreatic elastase (Homo sapiens, UniProt Q9UNI1); assay: Inhibition of pancreatic elastase by UAMC-00050 (IC50); type: biochemical; settings: in vitro
# Chain of pancreatic elastase (Q9UNI1 19-258): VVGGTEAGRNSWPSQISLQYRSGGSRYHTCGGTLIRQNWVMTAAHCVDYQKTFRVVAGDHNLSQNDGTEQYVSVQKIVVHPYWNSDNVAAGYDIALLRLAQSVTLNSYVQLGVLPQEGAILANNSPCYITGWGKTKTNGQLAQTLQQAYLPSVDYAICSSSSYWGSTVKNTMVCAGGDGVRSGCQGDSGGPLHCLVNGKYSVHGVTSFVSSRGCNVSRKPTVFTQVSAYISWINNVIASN
# Description: Here, the potency of UAMC-00050 to inhibit two other serine proteases, chymotrypsin and pancreatic elastase, with specificity was determined.
# [2] = system: inflammatory infiltrate and mucosal architecture of distal colon; assay: Microscopic score of the distal colon; type: in vivo, Sprague–Dawley rats; settings: for Microscopy, Day of VMR: score 0–10, mean ± SEM, n = 8
# Description: For microscopic evaluation, a representative section of the distal colon (1 cm^2) was fixed in 4% formaldehyde for 24 h and embedded in paraffin for hematoxylin and eosin staining. Transverse sections (5 µm) were scored for the presence of inflammatory infiltrate and alterations in mucosal architecture, as previously described (total score 0–10, Supplementary Table S3).
# inflammatory parameters = system: inflammatory parameters; parameters: method as in PMID 29911328; settings: post-inflammatory model, intraperitoneal treatment; cited from earlier work
# colonic mucosal damage = assay: Macroscopic score of mucosal damage; type: in vivo, Sprague–Dawley rats; settings: for Macroscopy, Day of VMR: score 0–10, mean ± SEM, n = 8
# Description: After VMR and compliance measurements, the rat was sacrificed by exsanguination under pentobarbital anesthesia (45 mg/kg, i.p.). The colon was excised, rinsed with Krebs solution, opened along the mesenteric border, and evaluated visually for the presence of mucosal damage using a previously validated scoring system (total score 0–10, Supplementary Table S2).
# [3] = Pharmacokinetics after intravenous administration (plasma, LC-MS/MS, PKSolver two-compartment model); type: in vivo, Sprague–Dawley rats; settings: rat, i.v. 1 mg/kg
# Description: as §1, §2, §3
# All data are presented as mean ± SEM or as median (IQR). Pharmacokinetic analysis and modeling of the plasma concentration–time data was performed using PKSolver. Other statistical analysis and data visualization processes were performed using R software (version 4.0.3) and GraphPad Prism (version 7.04). The nominal significance level was 0.05 for all tests. The development of body weight, VMR results, and colonic compliance were assessed with generalized estimating equations (GEE) using an unstructured working correlation matrix, followed by Fisher’s least significant difference (LSD) post hoc test on prespecified pairwise comparisons of interest. Inflammatory parameters were analyzed using two-way analysis of variance (ANOVA), followed by Student–Newman–Keuls (SNK) post hoc testing when applicable. To evaluate the differences in proteolytic activities between control, post-colitis, treated, and untreated rats, a two-way ANOVA was conducted. Main effects were tested on split files with a Mann–Whitney U test with Bonferroni correction. To assess correlations between specific fecal or colonic proteolytic activities and inflammatory parameters, the pairwise comparisons of interest were determined a priori. Spearman’s rank order correlation coefficient was used and the Holm–Bonferroni method was applied to correct for multiplicity.
# [4] = control rats, 5.0 mg/kg intracolonic
# [5] = post-colitis rats, 0.1 mg/kg intracolonic
# [6] = post-colitis rats, 1.0 mg/kg intracolonic
# [7] = post-colitis rats, 2.5 mg/kg intracolonic
# [8] = post-colitis rats, 5.0 mg/kg intracolonic
# [9] = single intracolonic administration, control and post-colitis rats
compound,measurement,setting,value
CC(=O)Nc1ccc(OP(=O)(Oc2ccc(NC(C)=O)cc2)C(Cc2ccc(N=C(N)N)cc2)NC(=O)OCc2ccccc2)cc1.Cl (centres unmarked) [UAMC-00050],inhibition of cathepsin G,cathepsin G,efficiently inhibits
same,Plasma concentration after intracolonic administration as share of plasma concentration after intravenous administration,"[1]; 5 min after administration, 5 mg/kg intracolonic versus 1 mg/kg intravenous",5.4%
same,Plasma concentration,"[1]; 30–180 min after administration, lower limit of quantification 5 ng/mL",below the lower limit of quantification
same,Plasma concentration,"[1]; 5 min after administration, mean ± SEM, n = 5",14.1 ± 2.9 ng/mL
same,Plasma concentration,"[1]; 15 min after administration, mean ± SEM, n = 5",10.3 ± 1.3 ng/mL
same,Effect on inflammation,chronic colitis,anti-inflammatory effects
same,IC50,pancreatic elastase,> 10 µM
same,"Microscopy, Day of VMR",[2]; [4],0.8 ± 0.4
same,"Microscopy, Day of VMR",[2]; [5],0.4 ± 0.4
same,"Microscopy, Day of VMR",[2]; [6],0.8 ± 0.4
same,"Microscopy, Day of VMR",[2]; [7],0.5 ± 0.4
same,"Microscopy, Day of VMR",[2]; [8],0.6 ± 0.4
same,Effect on microscopic evaluation of mucosal damage,[2]; [9],no effect
same,Effects on inflammatory parameters,inflammatory parameters,no effects
same,"Macroscopy, Day of VMR",colonic mucosal damage; [4],0.0 ± 0.0
same,"Macroscopy, Day of VMR",colonic mucosal damage; [5],0.0 ± 0.0
same,"Macroscopy, Day of VMR",colonic mucosal damage; [6],0.0 ± 0.0
same,"Macroscopy, Day of VMR",colonic mucosal damage; [7],0.0 ± 0.0
same,"Macroscopy, Day of VMR",colonic mucosal damage; [8],0.0 ± 0.0
same,Effect on macroscopic evaluation of mucosal damage,colonic mucosal damage; [9],no effect
same,k12,[3]; distribution to the peripheral compartment,0.028 min⁻¹
same,k21,[3]; redistribution from peripheral to central compartment,0.014 min⁻¹
same,A,[3]; two-compartment model,500.7 ng/mL
same,AUC 0-inf,[3]; two-compartment model,5915 ng·min/mL
same,AUC 0-t,[3]; two-compartment model,5422 ng·min/mL
same,AUMC,[3]; two-compartment model,"200,489 ng/mL*min2"
same,Alpha,[3]; two-compartment model,0.119 min⁻¹
same,B,[3]; two-compartment model,17.9 ng/mL
same,Beta,[3]; two-compartment model,0.010 min⁻¹
same,C0,[3]; two-compartment model,518.7 ng/mL
same,CL,[3]; two-compartment model,0.0005072 (mg)/(ng/mL)/min
same,CL2,[3]; two-compartment model,0.0001621 (mg)/(ng/mL)/min
same,MRT,[3]; two-compartment model,33.9 min
same,V,[3]; two-compartment model,0.006 (mg)/(ng/mL)
same,V2,[3]; two-compartment model,0.011 (mg)/(ng/mL)
same,Vss,[3]; two-compartment model,0.017 mg/(ng/mL)
same,k10,[3]; two-compartment model,0.087 min⁻¹
same,k12,[3]; two-compartment model,0.028 min⁻¹
same,k21,[3]; two-compartment model,0.014 min⁻¹
same,t1/2Beta,[3]; two-compartment model,66.5 min
same,t1/2Alpha,"[3]; two-compartment model, 1 mg/kg",5.800 min and 5.8 min
